Source: patent publication US20230312578A1, “6H-INDOLO[2,3-B]QUINOXALINE DERIVATIVES USEFUL IN THERAPY” (Vironova Medical AB, priority 2020, published 2023)
Read-outs that look alike come from different tables or passages of the source.

Key:
Type in all cases: cell-based
NCI-H522 = test: Human tumor cell line growth assay (SRB); conditions: Homo sapiens; NSCLC, NCI-H522, 48 h
[1] = Human tumor cell line growth assay (SRB); conditions: human, NCI-H522 cells (NSCLC), NCI-H522, 48 h
SN12C = test: Human tumor cell line growth assay (SRB); conditions: Renal, 48 h; for CC50: read-out: LC50 (the source's name)
DU-145 = test: Human tumor cell line growth assay (SRB); conditions: Prostate, DU-145, 48 h; for CC50: read-out: LC50 (the source's name)
[2] = Human tumor cell line growth assay (SRB); conditions: human, SK-MEL-2 cells (melanoma), SK-MEL-2, 48 h, read-out: LC50
SK-MEL-2 = test: Human tumor cell line growth assay (SRB); conditions: Homo sapiens; Melanoma, SK-MEL-2, 48 h
OVCAR-8 = test: Human tumor cell line growth assay (SRB); conditions: Ovarian, OVCAR-8, 48 h
[3] = Human tumor cell line growth assay (SRB); conditions: human, HCT-15 cells (colon), HCT-15, 48 h
HCT-15 = test: Human tumor cell line growth assay (SRB); conditions: Homo sapiens; Colon, HCT-15, 48 h
HT29 = test: Human tumor cell line growth assay (SRB); conditions: Homo sapiens, HT-29; Colon, HT29, 48 h
EKVX = test: Human tumor cell line growth assay (SRB); conditions: Homo sapiens, NSCLC, 48 h
[4] = Human tumor cell line growth assay (SRB); conditions: human, EKVX cells (NSCLC), read-out: LC50
ACHN = test: Human tumor cell line growth assay (SRB); conditions: Renal, 48 h; for CC50: read-out: LC50 (the source's name)
NCI-H460 = test: Human tumor cell line growth assay (SRB); conditions: Homo sapiens; NSCLC, NCI-H460, 48 h
[5] = Human tumor cell line growth assay (SRB); conditions: human, NCI-H460 cells (NSCLC), NCI-H460, 48 h, read-out: LC50
KM12 = test: Human tumor cell line growth assay (SRB); conditions: Homo sapiens; Colon, KM12, 48 h
[6] = Human tumor cell line growth assay (SRB); conditions: human, KM12 cells (colon), KM12, 48 h, read-out: LC50
SW-620 = test: Human tumor cell line growth assay (SRB); conditions: Homo sapiens; Colon, SW-620, 48 h
[7] = Human tumor cell line growth assay (SRB); conditions: human, SW-620 cells (colon), SW-620, 48 h
MCF7 = test: Human tumor cell line growth assay (SRB); conditions: Breast, MCF7, 48 h; for CC50: read-out: LC50 (the source's name)
SNB-75 = test: Human tumor cell line growth assay (SRB); conditions: Homo sapiens; CNS, SNB-75, 48 h
[8] = Human tumor cell line growth assay (SRB); conditions: human, SNB-75 cells (CNS), SNB-75, 48 h
CAKI-1 = test: Human tumor cell line growth assay (SRB); conditions: Renal, CAKI-1, 48 h; for CC50: read-out: LC50 (the source's name)
[9] = Human tumor cell line growth assay (SRB); conditions: human, LOX IMVI cells (melanoma), read-out: LC50
LOX IMVI = test: Human tumor cell line growth assay (SRB); conditions: Homo sapiens, Melanoma, 48 h
SF-539 = test: Human tumor cell line growth assay (SRB); conditions: Homo sapiens; CNS, SF-539, 48 h
[10] = Human tumor cell line growth assay (SRB); conditions: human, SF-539 cells (CNS), SF-539, 48 h, read-out: LC50
[11] = Human tumor cell line growth assay (SRB); conditions: human, UACC-257 cells (melanoma), UACC-257, 48 h, read-out: LC50
UACC-257 = test: Human tumor cell line growth assay (SRB); conditions: Homo sapiens; Melanoma, UACC-257, 48 h
SK-OV-3 = test: Human tumor cell line growth assay (SRB); conditions: Ovarian, SK-OV-3, 48 h; for CC50: read-out: LC50 (the source's name)
HOP-62 = test: Human tumor cell line growth assay (SRB); conditions: Homo sapiens; NSCLC, HOP-62, 48 h
[12] = Human tumor cell line growth assay (SRB); conditions: human, MDA-MB-435 cells (melanoma), MDA-MB-435, 48 h, read-out: LC50
MDA-MB-435 = test: Human tumor cell line growth assay (SRB); conditions: Homo sapiens; Melanoma, MDA-MB-435, 48 h
SK-MEL-28 = test: Human tumor cell line growth assay (SRB); conditions: Homo sapiens; Melanoma, SK-MEL-28, 48 h
[13] = Human tumor cell line growth assay (SRB); conditions: human, SK-MEL-28 cells (melanoma), SK-MEL-28, 48 h, read-out: LC50
[14] = Human tumor cell line growth assay (SRB); conditions: human, NCI-H226 cells (NSCLC), NCI-H226, 48 h, read-out: LC50
NCI-H226 = test: Human tumor cell line growth assay (SRB); conditions: Homo sapiens; NSCLC, NCI-H226, 48 h

Structure (SMILES): Cc1cc2nc3c4cc(N)ccc4n(CCN(C)C)c3nc2cc1C [JBD-136, 6-(2-(dimethylamino)ethyl)-2,3-dimethyl-6H-indolo [2,3-b]quinoxalin-9-amine]
- GI50 (NCI-H522): 771 nM
- LC50 at 48 h [1]: > 100000 nM
- GI50 (SN12C): 553 nM
- CC50 (SN12C): > 100000 nM
- GI50 (DU-145): 1550 nM
- CC50 (DU-145): 47800 nM
- CC50 at 48 h [2]: 66700 nM
- GI50 (SK-MEL-2): 1630 nM
- GI50 (OVCAR-8): 556 nM
- CC50 (OVCAR-8; read-out: LC50 (the source's name)): > 100000 nM
- LC50 (concentration killing 50% of cells) at 48 h [3]: > 100000 nM
- GI50 (HCT-15): 528 nM
- GI50 (HT29): 430 nM
- GI50 (EKVX): 1990 nM
- CC50 at 48 h [4]: > 100000 nM
- GI50 (ACHN): 367 nM
- CC50 (ACHN): 57300 nM
- GI50 (NCI-H460): 434 nM
- CC50 at 48 h [5]: 36600 nM
- GI50 (KM12): 1200 nM
- CC50 at 48 h [6]: 94700 nM
- GI50 (SW-620): 389 nM
- LC50 (50% lethal concentration) at 48 h [7]: 83800 nM
- GI50 (MCF7): 675 nM
- CC50 (MCF7): 57500 nM
- GI50 (SNB-75): 1250 nM
- LC50 (concentration killing 50% of cells) at 48 h [8]: 24800 nM
- GI50 (CAKI-1): 427 nM
- CC50 (CAKI-1): 85500 nM
- CC50 at 48 h [9]: 21800 nM
- GI50 (LOX IMVI): 494 nM
- GI50 (SF-539): 882 nM
- CC50 at 48 h [10]: 19500 nM
- CC50 at 48 h [11]: 71500 nM
- GI50 (UACC-257): 1500 nM
- GI50 (SK-OV-3): 2230 nM
- CC50 (SK-OV-3): > 100000 nM
- GI50 (HOP-62): 1140 nM
- CC50 at 48 h [12]: 5600 nM
- GI50 (MDA-MB-435): 1050 nM
- GI50 (SK-MEL-28): 2260 nM
- CC50 at 48 h [13]: 11400 nM
- CC50 at 48 h [14]: > 100000 nM
- GI50 (NCI-H226): 1320 nM

Structure (SMILES): COc1ccc2c(c1)c1nc3cc(C)c(C)cc3nc1n2CCN(C)C [JBA-094, 2-(9-methoxy-2,3-dimethyl-6H-indolo[2,3-b]quinoxalin-6-yl)-N,N-dimethylethanamine]
- GI50 (NCI-H522): 515 nM
- LC50 at 48 h [1]: > 100000 nM
- GI50 (SN12C): 503 nM
- CC50 (SN12C): 5240 nM
- GI50 (DU-145): 1010 nM
- CC50 (DU-145): 5320 nM
- CC50 at 48 h [2]: 7870 nM
- GI50 (SK-MEL-2): 1710 nM
- GI50 (OVCAR-8): 531 nM
- LC50 (concentration killing 50% of cells) at 48 h [3]: 5570 nM
- GI50 (HCT-15): 410 nM
- GI50 (HT29): 369 nM
- GI50 (EKVX): 1280 nM
- CC50 at 48 h [4]: 6800 nM
- GI50 (ACHN): 358 nM
- CC50 (ACHN): 3960 nM
- GI50 (NCI-H460): 388 nM
- CC50 at 48 h [5]: 4980 nM
- GI50 (KM12): 1050 nM
- CC50 at 48 h [6]: 6360 nM
- GI50 (SW-620): 454 nM
- LC50 (50% lethal concentration) at 48 h [7]: 5530 nM
- GI50 (MCF7): 332 nM
- CC50 (MCF7): 4790 nM
- GI50 (SNB-75): 1230 nM
- LC50 (concentration killing 50% of cells) at 48 h [8]: 23800 nM
- GI50 (CAKI-1): 541 nM
- CC50 (CAKI-1): 4930 nM
- CC50 at 48 h [9]: 6070 nM
- GI50 (LOX IMVI): 336 nM
- GI50 (SF-539): 663 nM
- CC50 at 48 h [10]: 5200 nM
- CC50 at 48 h [11]: 7970 nM
- GI50 (UACC-257): 1500 nM
- GI50 (SK-OV-3): 1500 nM
- CC50 (SK-OV-3): 7170 nM
- GI50 (HOP-62): 1190 nM
- CC50 at 48 h [12]: 6030 nM
- GI50 (MDA-MB-435): 1110 nM
- GI50 (SK-MEL-28): 1790 nM
- CC50 at 48 h [13]: 6760 nM
- CC50 at 48 h [14]: 8200 nM
- GI50 (NCI-H226): 1240 nM
